# Assay results: US20250170098A1, “MOLECULAR JACKHAMMER FOR MECHANICAL DESTRUCTION OF CELLULAR STRUCTURE” (William Marsh Rice University, priority 2022, published 2025)
# Key:
# A375 cells = assay: Clonogenic assay; assay type: cell-based, human; conditions: Homo sapiens, A-375, read-out: lethal concentration to kill the cell population by 50% (VDA IC50)
# Description: The clonogenic assay was conducted to confirm that cancer cells treated by plasmon-driven MJH are indeed death upon NIR-light activation (FIG. 18). Three molecules were analyzed: the most VDA active BL-204, medium active BL-141-2 and low active Cy7-amine. […] This was accomplished by incubating the MJH molecules with the A375 cells for 50 min and immediately activate the plasmon-driven MJH using 730 nm NIR-light at 80 mW/cm^2 for 10 min. This is considered a short contact time between the MJH and the A375 cells.
# Clonogenic assay. A375 cells were seeded in 35 mm cell culture dishes at predetermined densities to allow for an approximately equal number of resultant colonies. The next day, cells were treated with Cy7.5-amine at variable concentration and with or without 730 nm light at 80 mWcm^−2 for 10 min. The cells were incubated with Cy7.5-amine for 50 min before the illumination, the media was replaced with fresh media after the illumination and cells were cultured for 6 days to allow for colony formation. Cells were then washed once with PBS and fixed-stained in a 0.5% (w/v) crystal violet in methanol/water solution (1:1) during 10 min. The excess of crystal violet was washed off with water, the plates were dried at room temperature and then the colonies were counted using ImageJ software version 1.52a, and the survival fraction was determined. All treatments were in triplicate.
# [1] = tested on: human melanoma A375 cells; assay: Cell permeabilization to DAPI, flow cytometry analysis; assay type: cell-based; conditions: for permeabilization of the cells to DAPI: 730 nm light at 80 mW/cm^2 for 10 min; for IC50: Homo sapiens, A-375, 10 min, 730 nm LED light at 80 mW/cm^2 for 10 min, DAPI positive cells, read-out: VDA IC50 (effective concentration needed to permeabilize cells by 50%)
# Description: The activity of plasmon-driven MJHs to open cell membranes by VDA upon NIR light-activation was evaluated in human melanoma A375 cells. When the cell membranes were open by VDA, DAPI enters immediately into the cells and stain the nucleus, and flow cytometry analysis was used to quantify the percentage of DAPI positive cells at variable concentrations of MJH. The flow cytometry analysis is conducted immediately after the cells were treated with 730 nm LED light at 80 mW/cm^2 for 10 min. Typically, it took ˜30 s to start cell counting and observe that DAPI already had entered into the cell membrane-compromised cells but not in the controls without VDA action. This is indicative of a rapid necrotic cell death and cell membrane permeabilization to DAPI by VDA action. The effective concentration needed to permeabilize cells by 50% (VDA IC50) was estimated for each molecule.
# The flow cytometry data was analyzed using FlowJo software version 10.5.3. Then, a wide polygonal gate was drawn as shown in FIG. 33A since we were interested in detecting any cell death after treatment, we were not only interested in measuring healthy cell populations. Sometimes, we observed that the death cell population upon treatment shifted outside the gate if a narrow gate was used. Then, the singlets were selected and the DAPI fluorescence intensity was plotted versus the SSC-A and the gate for DAPI positive cells was drawn as shown in FIG. 33C and the analysis was applied to all samples in the group. In FIG. 33D, a DAPI positive population is observed in the same analysis group. This analysis was applied to calculate the percentage of DAPI positive cells.
# Cell Permeabilization and flow cytometry analysis. A375 cells were cultured as described before. One day before the treatment, cells were inoculated at 5 million cells per dish (10 cm polystyrene tissue culture dish). The cells were harvested using 0.05% trypsin-EDTA (Gibco, 25-300-054), then the cells were counted and were adjusted to a cell density of 2×10^5 cells/mL in DMEM media with L-glutamine, 4.5 g/L glucose, and sodium pyruvate (Corning Inc. 10013CV) and supplemented with 10% FBS (Corning, 35010CV), 2×MEM vitamin solution (Gibco, 11120052), 1×MEM non-essential amino acid solution (Gibco, 11140050) and penicillin/streptomycin. 1 mL of this cell suspension containing 2×10^5 cells was used in each treatment. In a 1.5 mL Eppendorf tube, […] containing 2 mM Cy7.5-amine (or other cyanine molecule or other concentration) in DMSO (Fisher, 99.7%) was placed in the bottom of the tube, then 1 mL of the cell suspension was added into the tube to get final concentration of 2 μM of Cy7.5-amine containing 0.1% DMSO and 2×10^5 cells. The mixture was then incubated at 37° C. and 5% CO2 for 30 min. Then, 1 mM DAPI was added into the cell suspension. Then, the cells suspension was transferred to a […] tissue culture dish and immediately the cells were treated under the light beam of NIR light of 730 nm at 80 mW/cm^2 (or adjusted powers down to 20 mW/cm^2) for 10 min (or adjusted illumination times down to 30 s) using LED light source (PRIZMATIX, UHP-F-730, Israel) which covered the entire dish. While the cells were treated, the dish was placed on top of an aluminum block painted black, so that the excess NR light and that was not reflected back into the cell suspension while the aluminum block actED as a heat-sink, maintaining a constant temperature in the dish during the irradiation. The instrument for flow cytometry analysis (SONY, MA900 Multi-Application Cell Sorter) was already set up and calibrated by the time the light treatment was finished. Therefore, as soon as the 10-min light treatment was completed, the cell suspension was rapidly transferred from the 35 mm dish to a flow cytometry tube and the cells were analyzed for DAPI permeabilization and Cy7.5-amine binding. It took ˜30 s to load the sample and to start the analysis. […]
IC50 [1] [µM],Structure (SMILES),IC50 (A375 cells) [nM],also measured
–,"CN(C)CCCCCC[N+]1=C(/C=C/C2=CC(=C/C=C3/N(C)c4ccc5ccccc5c4C3(C)C)/CCC2)C(C)(C)c2c1ccc1ccccc21 [BL-141-2, 3-(6-(dimethylamino)hexyl)-1,1-dimethyl-2-((E)-2-((E)-3-((E)-2-(1,1,3-trimethyl-1,3-dihydro-2H-benzo[e]indol-2-ylidene)ethylidene)cyclohex-1-en-1-yl)vinyl)-1H-benzo[e]indol-3-ium]",65,–
–,CN1/C(=C\C=C2C=C(/C=C/C3=[N+](CCCCCC(=O)NCCCCCCN)c4ccccc4C3(C)C)CCC\2)C(C)(C)c2ccccc21 [Cy7-amine],175,"permeabilization to DAPI staining, percentage of cells ([1]; 1 μM, 730 nm LED at 80 mW/cm^2 for 10 min): 0.8%; effect of 680 nm excitation on opening cell membranes ([1]; 680 nm LED, 80 mWcm^−2 for 10 min): improves the MJH effect for opening cell membranes"
> 8,"CC1(C)C(/C=C/C=C/C=C/C=C2\N(CCCCS(=O)(=O)O)c3ccc4ccccc4c3C2(C)C)=[N+](CCCCS(=O)(=O)[O-])c2ccc3ccccc3c21 [ICG, indocynine green]",–,permeabilization of the cells to DAPI ([1]; 32 μM): 2%; permeabilization of the cells to DAPI ([1]; 400 μM): 14%
> 8,CN1/C(=C/C=C2C=C(/C=C/c3ccc4ccccc4[n+]3C)CCC/2)C=Cc2ccccc21 [BL-206],–,–

Structure (SMILES),IC50 [1] [µM],IC50 (A375 cells) [nM],also measured
"CN(C)CC[N+]1=C(/C=C/C2=CC(=C/C=C3/N(C)c4ccc5ccccc5c4C3(C)C)/CCC2)C(C)(C)c2c1ccc1ccccc21 [BL-204, 3-(2-(dimethylamino)ethyl)-1,1-dimethyl-2-((E)-2-((E)-3-((E)-2-(1,1,3-trimethyl-1,3-dihydro-2H-benzo[e]indol-2-ylidene)ethylidene)cyclohex-1-en-1-yl)vinyl)-1H-benzo[e]indol-3-ium]",0.12,45,–
